ChEMBL document CHEMBL3792287, “Antiplasmodial phloroglucinol derivatives from Syncarpia glomulifera” (Bioorg Med Chem, 2016)

What was measured:
Plasmodium falciparum = assay: Antiplasmodial activity against Plasmodium falciparum Dd2 incubated under low oxygen conditions after 72 hrs by SYBR green assay; type: functional, organism-based; conditions: Dd2, 72 h
HEK293 [1] = assay: Cytotoxicity against HEK293 cells assessed as reduction in cell viability at 100 uM after 24 hrs by resazurin dye based fluorescence assay; conditions: human, hek293, 24 h
HEK293 [2] = assay: Cytotoxicity against HEK293 cells assessed as reduction in cell viability up to 3.125 uM after 24 hrs by resazurin dye based fluorescence assay; conditions: human, hek293, 24 h
[3] = Cytotoxicity against HEK293 cells assessed as reduction in cell viability at 50 uM after 24 hrs by resazurin dye based fluorescence assay; conditions: human, read-out: INH

IC50 (Plasmodium falciparum) | SMILES | Activity (HEK293 [1]) | Activity (HEK293 [2]) | cytotoxicity at 24 h, 50 µM [3]
> 40 µM | C[C@H]1[C@H](C)CC[C@]2(C(=O)O)CC[C@]3(C)C(=CC[C@@H]4[C@@]5(C)CC[C@H](O)C(C)(C)[C@@H]5CC[C@]43C)[C@H]12 [URSOLIC ACID] | – | – | –
12.1 µM | CC(=O)O[C@H]1CC[C@]2(C)[C@H]3CC=C4[C@@H]5[C@@H](C)[C@H](C)CC[C@]5(C(=O)O)CC[C@@]4(C)[C@]3(C)CC[C@H]2C1(C)C [O-ACETYLURSOLIC ACID] | – | – | –
3.81 µM | CC(C)=CCCC1=CCC2(C(=O)C(C)(C)C(=O)C(C)(C)C2=O)C(CC(C)C)C1 (racemic) | Non-toxic | – | –
0.1 µM | CCCCCC(=O)c1c(O)cc(O)c2c1OC1=C(C(=O)C(C)(C)C(=O)C1(C)C)C2CC(C)C (racemic) | – | Non-toxic | 58%

Continued, compound first:

SMILES | IC50 (Plasmodium falciparum) | Activity (HEK293 [1]) | Activity (HEK293 [2]) | cytotoxicity at 24 h, 50 µM [3]
C=C(C)[C@@H]1CC[C@]2(C(=O)O)CC[C@]3(C)[C@H](CC[C@@H]4[C@@]5(C)CC[C@H](O)C(C)(C)[C@@H]5CC[C@]43C)[C@@H]12 [BETULINIC ACID] | 3.44 µM | – | – | –
C[C@@H]1CC[C@H]2[C@@H](C)C(=O)O[C@@H]3O[C@@]4(C)CC[C@@H]1[C@]32OO4 [ARTEMISININ] | 0.0062 µM | – | – | –
CCCCCC(=O)c1c(O)cc(O)cc1O | > 80 µM | – | – | –
